Test results published in paper doi:10.1101/2025.04.25.650653, “Hierarchical small molecule inhibition of MYST acetyltransferases” (bioRxiv, 2025).
Values joined by “and” are separate entries in the source; they are usually repeats but may differ in a detail not shown here. Equal values may be shown once.

System: histone modifications in MCF-7 cells
Experiment: Histone modification analysis by bottom-up LC-MS/MS
Format: cell-based
Details: Replicates 1-3
Excerpt: In this approach. […] Histones are then extracted from cell pellets and chemically derivatized with propionic anhydride, digested with trypsin, subjected to a second round of propionylation, and analyzed by LC-MS/MS. Measuring the relative intensity of modified versus unmodified forms of individual histone peptides enables simultaneous monitoring of multiple potential biomarkers of MYST inhibition. To minimize false positives, we focused on abundant and reproducible modifications (average stoichiometry of greater than 1% across triplicate samples, standard deviation less than or equal to the average measurement). To account for potential histone modification crosstalk, changes in both acetylated and methylated peptides were evaluated. 38 modified peptides passed this reproducible detection threshold including several established KAT biomarkers[41] including H3K9Ac (KAT2A/B), H3K18Ac (KAT3A/B), H3K14Ac (KAT7), H3K23Ac (KAT6A/B), H4K16Ac (KAT8), and H2A.ZK4/K7Ac (KAT5; Fig. 4B).
Histone modification analysis
MCF-7 cells were cultured at 37 °C under 5% CO2 in EMEM (Quality Biological, 112-016-101) with 0.01 mg/mL human recombinant insulin (Sigma Aldrich, 91077C), 2 mM L-glutamine (Quality Biological, 118- […]
human recombinant insulin.
1119, WM-3835). Following 24 h inhibitor treatment, cells were washed with ice-cold 1× PBS and scraped in 150 µL of Nuclear Isolation Buffer (NIB) containing 0.1% NP-40 for histone extraction using a modified protocol from the Garcia laboratory. 9 Briefly, cell suspensions were incubated on ice for 5 minutes, and […]
nuclei were pelleted by centrifugation (600 rcf, 4°C, 5 min). Pelleted nuclei were washed twice with 150 μL of detergent-free NIB buffer, followed by centrifugation (600 rcf, 4°C, 5 min) to remove all detergent.
Nuclei were then resuspended in 400 μL of 0.4 N H₂SO₄ and rotated at 4°C overnight for acid extraction of histones. The following day, samples were centrifuged (11,000 rcf, 4°C, 10 min) and the histone-containing supernatant was transferred to a fresh tube. Trichloroacetic acid (100% TCA) was added to achieve a final concentration of 20% (v/v), tubes were inverted once to mix, and histone precipitation was performed on ice for at least 3 hours or overnight at 4°C. Precipitated histones were collected by centrifugation (11,000 rcf, 4°C, 10 min) and the supernatant carefully removed, leaving a visible film of histones on the tube wall or bottom. Histone pellets were subjected to sequential washes with 1 mL of ice-cold acidified acetone (0.1% 12 N HCl) followed by 1 mL of 100% ice-cold acetone, with centrifugation (11,000 rcf, 4°C, 5 min) after each wash. Samples were air-dried at room temperature, resuspended in 40 µL of ddH₂O, and protein […]
analysis, 1-2 µg of purified histones were loaded per lane and processed according to the general immunoblotting protocol described in General Materials and Methods.
Analysis of histone modifications by LC-MS/MS
Preparation of histone samples for LC-MS/MS was performed analogously to the procedure for immunoblotting above, with the following modifications. MCF7 cells (4.2 × 106) were seeded in 15 cm dishes and treated with PF-9363 or vehicle. Experiments were performed in triplicate. Following treatment and PBS washing, cells were scraped and collected in 15 mL falcon tubes, pelleted (500 rcf, 4°C, 5 min), resuspended in 1 mL cold PBS, transferred to microcentrifuge tubes, and pelleted again before flash-freezing in liquid nitrogen for storage at -80°C. For extraction, cell pellets (~100 μL) were resuspended in NIB buffer at a 1:10 ratio, and cells were lysed with NIB buffer containing 0.2% NP-40 for 8 minutes on ice. Nuclei were pelleted at 1,000 rcf for 8 minutes and washed three times with 500 μL detergent-free NIB buffer. Histones were extracted using 800 μL of 0.2 M H₂SO₄, and after centrifugation (3,400 rcf, 4°C, 10

`COc1cccc(OC)c1S(=O)(=O)Nc1noc2cc(Cn3cccn3)cc(OC)c12` [PF-9363] was tested, and the “Ratio, H2A1_4_11 unmod” value (PF-9363 1) was 0.8988 and 0.8885 and 0.9043, the “Ratio, H2A1_36_42 unmod” value (PF-9363 1) was 0.9987 (2×) and 0.999 and the “Ratio, H2A3_36_42 unmod” value (PF-9363 1) was 1. The “Ratio, H2AJ_4_11 K5acK9ac” value (PF-9363 1) was 0.8841 and 0.8218 and 0.8897, the “Ratio, H2AV_1_19 K4ac” value (PF-9363 1) was 0.04613 and 0.03379 and 0.05235 and the “Ratio, H2AV_1_19 unmod” value (PF-9363 1) was 0.7904 and 0.9003 and 0.7876. The “Ratio, H2AX_4_11 unmod” value (PF-9363 1) was 0.3103 and 0.2578 and 0.2996, the “Ratio, H2AX_36_42 unmod” value (PF-9363 1) was 1 and the “Ratio, H2AZ_1_19 K11ac” value (PF-9363 1) was 0.007104 and 0.02367 and 0.02119. For the same compound, the “Ratio, H2AZ_1_19 unmod” value (PF-9363 1) was 0.8748 and 0.8677 and 0.8766, the “Ratio, H3_73_83 K79me1” value (PF-9363 1) was 0.08571 and 0.09293 and 0.08865 and the “Ratio, H3_73_83 K79me2” value (PF-9363 1) was 0.07582 and 0.06553 and 0.05074. The “Ratio, H3_73_83 unmod” value (PF-9363 1) was 0.8373 and 0.84 and 0.8592, the “Ratio, H4_4_17 K12acK16ac” value (PF-9363 1) was 0.009843 and 0.01149 and 0.01038 and the “Ratio, H4_4_17 unmod” value (PF-9363 1) was 0.6943 and 0.6691 and 0.6837. For the same compound, the “Ratio, H4_20_23 K20me1” value (PF-9363 1) was 0.04112 and 0.02779 and 0.03237, the “Ratio, H4_20_23 unmod” value (PF-9363 1) was 0.02967 and 0.03053 and 0.03337 and the “Ratio, H2A1_1_11 K5ac” value (PF-9363 10) was 0.7349 and 0.6528 and 0.8541. For the same compound, the “Ratio, H2A1_4_11 K5ac” value (PF-9363 10) was 0.05941 and 0.05561 and 0.05439, the “Ratio, H2A1_4_11 K9ac” value (PF-9363 10) was 0.0376 and 0.02679 and 0.04578 and the “Ratio, H2A1_4_11 unmod” value (PF-9363 10) was 0.8844 and 0.9105 and 0.8938. The “Ratio, H2A1_36_42 unmod” value (PF-9363 10) was 0.9994 and 0.9989 and 0.9987, the “Ratio, H2A3_36_42 unmod” value (PF-9363 10) was 1 and the “Ratio, H2AJ_4_11 K5acK9ac” value (PF-9363 10) was 0.87 and 0.9304 and 0.8571. The “Ratio, H2AV_1_19 K4ac” value (PF-9363 10) was 0.03545 and 0 and 0.04516, the “Ratio, H2AV_1_19 unmod” value (PF-9363 10) was 0.7519 and 0 and 0.8693 and the “Ratio, H2AX_4_11 unmod” value (PF-9363 10) was 0.3078 and 0.3089 and 0.315. For the same compound, the “Ratio, H2AX_36_42 unmod” value (PF-9363 10) was 0.9999 and 1 (2×), the “Ratio, H2AZ_1_19 K11ac” value (PF-9363 10) was 0.002627 and 0 and 0.03573 and the “Ratio, H2AZ_1_19 unmod” value (PF-9363 10) was 0.8481 and 0 and 0.8795. For the same compound, the “Ratio, H3_73_83 K79me1” value (PF-9363 10) was 0.0968 and 0.09055 and 0.1061, the “Ratio, H3_73_83 K79me2” value (PF-9363 10) was 0.04989 and 0 and 0.05862 and the “Ratio, H3_73_83 unmod” value (PF-9363 10) was 0.8517 and 0.9094 and 0.8343. For the same compound, the “Ratio, H4_4_17 K12acK16ac” value (PF-9363 10) was 0.004929 and 0.3101 and 0.006064, the “Ratio, H4_4_17 unmod” value (PF-9363 10) was 0.8097 and 0 and 0.7957 and the “Ratio, H4_20_23 K20me1” value (PF-9363 10) was 0.03215 and 0 and 0.02863. The “Ratio, H4_20_23 unmod” value (PF-9363 10) was 0.01905 and 0.02691 and 0.02102, the “Ratio, H2A1_1_11 K5ac” value (PF-9363 30) was 0.8425 and 0.9367 and 0.7907 and the “Ratio, H2A1_4_11 K5ac” value (PF-9363 30) was 0.04965 and 0.0448 and 0.04948. For the same compound, the “Ratio, H2A1_4_11 K9ac” value (PF-9363 30) was 0.02646 and 0.04262 and 0.03503, the “Ratio, H2A1_4_11 unmod” value (PF-9363 30) was 0.9191 and 0.9063 and 0.9088 and the “Ratio, H2A1_36_42 unmod” value (PF-9363 30) was 0.9989 and 0.9987 and 0.9988. The “Ratio, H2A3_36_42 unmod” value (PF-9363 30) was 1, the “Ratio, H2AJ_4_11 K5acK9ac” value (PF-9363 30) was 0.9299 and 0.8746 and 0.8721 and the “Ratio, H2AV_1_19 K4ac” value (PF-9363 30) was 0.04726 and 0.04134 and 0.0354. The “Ratio, H2AV_1_19 unmod” value (PF-9363 30) was 0.8732 and 0.735 and 0.7339, the “Ratio, H2AX_4_11 unmod” value (PF-9363 30) was 0.3537 and 0.3214 and 0.3151 and the “Ratio, H2AX_36_42 unmod” value (PF-9363 30) was 1. The “Ratio, H2AZ_1_19 K11ac” value (PF-9363 30) was 0 and 0.03845 and 0.003881, the “Ratio, H2AZ_1_19 unmod” value (PF-9363 30) was 1 and 0.8991 and 0.9454 and the “Ratio, H3_73_83 K79me1” value (PF-9363 30) was 0.07412 and 0.08491 and 0.08741. For the same compound, the “Ratio, H3_73_83 K79me2” value (PF-9363 30) was 0.05912 and 0.06141 and 0.04678, the “Ratio, H3_73_83 unmod” value (PF-9363 30) was 0.865 and 0.8523 and 0.8643 and the “Ratio, H4_4_17 K12acK16ac” value (PF-9363 30) was 0.3308 and 0.002262 and 0.2125. For the same compound, the “Ratio, H4_4_17 unmod” value (PF-9363 30) was 0.05921 and 0.8851 and 0.358, the “Ratio, H4_20_23 K20me1” value (PF-9363 30) was 0 and 0.03437 and 0.03685 and the “Ratio, H4_20_23 unmod” value (PF-9363 30) was 0.02728 and 0.02218 and 0.01429.
